Earlier results as cited in patent US20210213132A1, “FORMULATIONS OF SN-38 WITH POLY(AMINO ACID) BLOCK POLYMERS” (Tyndall Formulation Services, LLC, priority 2020, published 2021).
Where two headings read alike, the source gives them in different places.

Tests used:
topoisomerase I = target: T1, topoisomerase I (Homo sapiens, UniProt P11387); conditions: SN-38 versus irinotecan
T1 sequence (P11387 1-765): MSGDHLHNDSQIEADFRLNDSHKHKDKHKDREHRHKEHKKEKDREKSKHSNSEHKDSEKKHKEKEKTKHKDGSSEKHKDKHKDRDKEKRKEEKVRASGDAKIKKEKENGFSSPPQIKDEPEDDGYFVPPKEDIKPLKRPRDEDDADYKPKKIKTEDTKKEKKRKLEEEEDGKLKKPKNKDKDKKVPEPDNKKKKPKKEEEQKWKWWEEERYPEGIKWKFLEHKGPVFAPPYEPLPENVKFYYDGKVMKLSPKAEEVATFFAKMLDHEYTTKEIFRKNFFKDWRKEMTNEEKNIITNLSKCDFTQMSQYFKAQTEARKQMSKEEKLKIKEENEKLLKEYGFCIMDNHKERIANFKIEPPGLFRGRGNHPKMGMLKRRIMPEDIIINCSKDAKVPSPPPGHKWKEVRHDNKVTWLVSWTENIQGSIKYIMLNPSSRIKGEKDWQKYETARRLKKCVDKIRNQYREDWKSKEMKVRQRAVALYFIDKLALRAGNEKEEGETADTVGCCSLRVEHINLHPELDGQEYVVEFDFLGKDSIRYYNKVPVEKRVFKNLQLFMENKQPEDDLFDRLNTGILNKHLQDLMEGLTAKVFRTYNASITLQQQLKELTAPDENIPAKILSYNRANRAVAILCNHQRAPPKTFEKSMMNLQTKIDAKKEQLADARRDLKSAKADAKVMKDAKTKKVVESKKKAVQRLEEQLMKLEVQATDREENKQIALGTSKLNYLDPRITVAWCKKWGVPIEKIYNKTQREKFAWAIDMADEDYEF

[1] = system: metastatic colorectal cancer patients; conditions: patients treated with irinotecan
[2] = system: carboxylesterases, specifically CES1 and CES2

Structure (SMILES) | Potency relative to irinotecan (topoisomerase I) [fold] | Solubility in aqueous media | Percentage of patients experiencing asthenia ([1]; UGT1A1 *1/*1 genotype) [%] | Percentage of patients experiencing diarrhea ([1]; UGT1A1 *1/*1 genotype) [%] | Percentage of patients experiencing neutropenia ([1]; UGT1A1 *1/*1 genotype) [%] | Percentage of patients experiencing asthenia ([1]; UGT1A1 *1/*28 genotype) [%] | Percentage of patients experiencing diarrhea ([1]; UGT1A1 *1/*28 genotype) [%] | Percentage of patients experiencing neutropenia ([1]; UGT1A1 *1/*28 genotype) [%] | Percentage of patients experiencing asthenia ([1]; UGT1A1 *28/*28 genotype) [%] | Percentage of patients experiencing diarrhea ([1]; UGT1A1 *28/*28 genotype) [%] | Percentage of patients experiencing neutropenia ([1]; UGT1A1 *28/*28 genotype) [%] | Affinity of the carboxylesterases for irinotecan [2]
CCc1c2c(nc3ccc(O)cc13)-c1cc3c(c(=O)n1C2)COC(=O)[C@]3(O)CC [SN-38] | 100 to 1000 | extremely insoluble | – | – | – | – | – | – | – | – | – | –
CCc1c2c(nc3ccc(OC(=O)N4CCC(N5CCCCC5)CC4)cc13)-c1cc3c(c(=O)n1C2)COC(=O)[C@]3(O)CC [Irinotecan] | – | – | 25 | 17 | 15 | 38 | 33 | 27 | 70 | 70 | 40 | low
